Source: PubChem BioAssay (NCI)
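Tested at 5 concentrations; 48 h exposure; 96-well plates; endpoints linearly interpolated, else capped at highest concentration. TGI is the concentration that stops growth completely.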

Assays:
Assay in all cases: NCI tumour cell line growth inhibition, 48 h
EKVX NSCLC = test system: EKVX NSCLC
UACC-257 melanoma = test system: UACC-257 melanoma
SK-MEL-2 melanoma = test system: SK-MEL-2 melanoma
OVCAR-4 ovarian = test system: OVCAR-4 ovarian
HOP-62 NSCLC = test system: HOP-62 NSCLC
DLD-1 colon = test system: DLD-1 colon
TK-10 renal = test system: TK-10 renal
SK-MEL-5 melanoma = test system: SK-MEL-5 melanoma
CAKI-1 renal = test system: CAKI-1 renal
KM12 colon = test system: KM12 colon
SW-620 colon = test system: SW-620 colon
COLO 205 colon = test system: COLO 205 colon
HCT-116 colon = test system: HCT-116 colon
UACC-62 melanoma = test system: UACC-62 melanoma
NCI-H522 lung = test system: NCI-H522 lung
OVCAR-8 ovarian = test system: OVCAR-8 ovarian
DMS 114 small cell lung = test system: DMS 114 small cell lung
786-0 renal = test system: 786-0 renal
HOP-18 NSCLC = test system: HOP-18 NSCLC
HCT-15 colon = test system: HCT-15 colon
NCI-H226 lung = test system: NCI-H226 lung
SF-539 CNS = test system: SF-539 CNS
SK-MEL-28 melanoma = test system: SK-MEL-28 melanoma
IGROV1 ovarian = test system: IGROV1 ovarian
SNB-78 CNS = test system: SNB-78 CNS
MOLT-4 leukemia = test system: MOLT-4 leukemia
A498 renal = test system: A498 renal
HCC-2998 colon = test system: HCC-2998 colon
XF 498 CNS = test system: XF 498 CNS
ACHN renal = test system: ACHN renal
U251 CNS = test system: U251 CNS
DMS 273 small cell lung = test system: DMS 273 small cell lung
HL-60(TB) leukemia = test system: HL-60(TB) leukemia
RXF 393 renal = test system: RXF 393 renal
HOP-92 NSCLC = test system: HOP-92 NSCLC
OVCAR-3 ovarian = test system: OVCAR-3 ovarian
KM20L2 colon = test system: KM20L2 colon
HT29 colon = test system: HT29 colon
LXFL 529 NSCLC = test system: LXFL 529 NSCLC
OVCAR-5 ovarian = test system: OVCAR-5 ovarian
CCRF-CEM leukemia = test system: CCRF-CEM leukemia
M19-MEL melanoma = test system: M19-MEL melanoma
SNB-75 CNS = test system: SNB-75 CNS
NCI-H460 lung = test system: NCI-H460 lung
SF-268 CNS = test system: SF-268 CNS
M14 melanoma = test system: M14 melanoma
SR leukemia = test system: SR leukemia
LOX IMVI melanoma = test system: LOX IMVI melanoma
NCI-H23 lung = test system: NCI-H23 lung
A549 NSCLC = test system: A549 NSCLC
SF-295 CNS = test system: SF-295 CNS
MALME-3M melanoma = test system: MALME-3M melanoma
UO-31 renal = test system: UO-31 renal
SN12C renal = test system: SN12C renal
SK-OV-3 ovarian = test system: SK-OV-3 ovarian
SNB-19 CNS = test system: SNB-19 CNS
K-562 leukemia = test system: K-562 leukemia

CC1NOC(=O)C1N=Nc1cccc(Cl)c1 (configuration not stated) was tested, and the TGI (EKVX NSCLC) was > 100 µM, the TGI (UACC-257 melanoma) was > 100 µM and the TGI (SK-MEL-2 melanoma) was 47.4 µM. For the same compound, the TGI (OVCAR-4 ovarian) was > 100 µM, the TGI (HOP-62 NSCLC) was > 100 µM and the TGI (DLD-1 colon) was > 100 µM. The TGI (TK-10 renal) was > 100 µM, the TGI (SK-MEL-5 melanoma) was > 100 µM and the TGI (CAKI-1 renal) was > 100 µM. The TGI (KM12 colon) was > 100 µM, the TGI (SW-620 colon) was 23.4 µM and the TGI (COLO 205 colon) was 55.7 µM. The TGI (HCT-116 colon) was > 100 µM, the TGI (UACC-62 melanoma) was > 100 µM and the TGI (NCI-H522 lung) was 62.8 µM. The TGI (OVCAR-8 ovarian) was > 100 µM, the TGI (DMS 114 small cell lung) was 61.7 µM and the TGI (786-0 renal) was > 100 µM. The TGI (HOP-18 NSCLC) was > 100 µM, the TGI (HCT-15 colon) was 42.6 µM and the TGI (NCI-H226 lung) was > 100 µM. The TGI (SF-539 CNS) was > 100 µM, the TGI (SK-MEL-28 melanoma) was > 100 µM and the TGI (IGROV1 ovarian) was > 100 µM. The TGI (SNB-78 CNS) was > 100 µM, the TGI (MOLT-4 leukemia) was 86.7 µM and the TGI (A498 renal) was 52.5 µM. For the same compound, the TGI (HCC-2998 colon) was > 100 µM, the TGI (XF 498 CNS) was 72 µM and the TGI (ACHN renal) was > 100 µM. The TGI (U251 CNS) was 60.2 µM, the TGI (DMS 273 small cell lung) was > 100 µM and the TGI (HL-60(TB) leukemia) was 56.8 µM. For the same compound, the TGI (RXF 393 renal) was 64.1 µM, the TGI (HOP-92 NSCLC) was > 100 µM and the TGI (OVCAR-3 ovarian) was 60.4 µM. The TGI (KM20L2 colon) was > 100 µM, the TGI (HT29 colon) was 77 µM and the TGI (LXFL 529 NSCLC) was > 100 µM. For the same compound, the TGI (OVCAR-5 ovarian) was > 100 µM, the TGI (CCRF-CEM leukemia) was 57.7 µM and the TGI (M19-MEL melanoma) was 91.7 µM. For the same compound, the TGI (SNB-75 CNS) was 92.2 µM, the TGI (NCI-H460 lung) was > 100 µM and the TGI (SF-268 CNS) was 89.9 µM. The TGI (M14 melanoma) was > 100 µM, the TGI (SR leukemia) was 71.5 µM and the TGI (LOX IMVI melanoma) was > 100 µM. For the same compound, the TGI (NCI-H23 lung) was > 100 µM, the TGI (A549 NSCLC) was > 100 µM and the TGI (SF-295 CNS) was > 100 µM. For the same compound, the TGI (MALME-3M melanoma) was > 100 µM, the TGI (UO-31 renal) was > 100 µM and the TGI (SN12C renal) was > 100 µM. For the same compound, the TGI (SK-OV-3 ovarian) was 96.1 µM, the TGI (SNB-19 CNS) was > 100 µM and the TGI (K-562 leukemia) was > 100 µM.
